Assay [1] has as its system PAF-induced bronchoconstriction. The assay is described as follows: inhibition of PAF-induced bronchoconstriction in the guinea pig. It is filed as in vivo, Male Dunkin-Hartley guinea-pigs. To be noted: 10 mg/kg p.o., 1 hour before PAF 40 ng/kg/min i.v. infusion. The procedure:
The inhibition of PAF induced bronchoconstriction was measured in anaesthetised artificially ventilated guinea-pigs (450-500 g) using a modified version of the Konzett-Rossler technique (Konzett M and Rossler R, Naunym-Schmiedeb. Arch. Exp. Pathol. Pharmakol., 1940, 197, 71) Male Dunkin-Hartley guinea-pigs were anaesthetised with urethane, 1.6 g/kg. Through a midline neck incision, the trachea was cannulated and the animal ventilated with a constant tidal volume set between 5 and 15 ml, to give a tracheal inflation pressure of 15 mmHg at a rate of 40 per minute. A carotid artery was cannulated for the measurement of blood pressure and heart rate and both jugular veins were cannulated, one for the infusion of PAF and the other for the administration of test compounds. PAF, 40 ng/kg/min in saline with 0.25% bovine serum albumin, was infused i.v. to produced a 100% increase in tracheal inflation pressure, and bronchoconstrictor effects were determined. Test compounds were administered p.o. (10 mg/kg) 1 hour before the infusion of PAF was started whilst the animals were conscious.

The test system of assay [2] is PAF-induced hypotension. The assay is described as follows: reversal of PAF-induced hypotension in the rat. Type of assay: in vivo, Male Sprague-Dawley rats. The conditions noted are these: iv, anaesthetised rats, i.v. bolus, PAF 100 ng/kg/min i.v. infusion, read-out: ED50 (50% reversal of the hypotensive PAF response). The procedure: (§1) Compounds of general formula I inhibit PAF-induced functions in both the cellular and tissue levels by changing the PAF binding to its specific receptor site. The ability of compounds of general formula I to inhibit the binding of PAF to its specific receptor binding site on human platelet plasma membranes was measured according to Pharmacological Example 1. The ability of compounds of general formula I to reverse the hypotension caused by an infusion of PAF in rats was measured according to Pharmacology Example 2.
Male Sprague-Dawley rats (300-350 g) were anaesthetised with a mixture of sodium pentobarbitone, 22.5 mg/kg and thiopental 62.5 mg/kg. Through a midline incision in the neck, the trachea was cannulated and the animals, breathed spontaneously. A carotid artery was cannulated for the measurement of blood pressure and this signal was used to trigger a rate meter to measure heart rate. Both jugular veins were cannulated: one for the infusion of PAF and the other for the bolus administration of test compounds.
PAF, 100 ng/kg/min was infused i.v. until a sustained fall in mean blood pressure of 50 mmHg was achieved. […] Also presented in Table 2 is the result for a comparative example (N-cyclohexyl-N-methyl-4-(1H-imidazo[4,5-c]pyridylmethyl)benzamide. This compound (a PAF antagonist described in EP-A-0260613) is not within the scope of the invention.

Assay [3] concerns the target T1, PAF receptor (Homo sapiens, UniProt P25105).
T1 construct: Platelet concentrates were obtained from a hospital blood bank; from tissue; host or cells: human platelets (hospital blood bank concentrates), lysed platelet membrane fraction
In words: inhibition of 3H-PAF binding to human platelet plasma membrane. To be noted: human platelet membranes, 0.5 nM 3H-PAF, 1 hour incubation at 0° C., pH 7.0. The procedure: as §1
The inhibition of 3H-PAF binding to human platelet plasma membrane by compounds of general formula I was determined by isotopic labelling and filtration techniques. Platelet concentrates were obtained from a hospital blood bank. These platelet concentrates (500-2500 ml.) were centrifuged at 800 rpm for 10 minutes in a SORVALL RC3B centrifuge to remove the red blood cells present. (The word SORVALL is a trade mark ) The supernatant was subsequently centrifuged at 3,000 rpm in a SORVALL RC3B centrifuge to pellet the platelets present. The platelet rich pellets were resuspended in a minimum volume of buffer (150 mM NaCl, 10 mM Tris, 2 mM EDTA, pH 7.5) and layered onto Ficoll-Paque gradients, 9 ml platelet concentrate to 2 ml Ficoll, and centrifuged at 1,900 rpm for 15 minutes in a SORVALL RT6000 centrifuge. This step removes the residual red blood cells and other nonspecific material such as lymphocytes from the preparation. The platelets which form a band between the plasma and the Ficoll were removed, resuspended in the above buffer and centrifuged at 3,000 rpm for 10 minutes in a SORVALL RT6000 centrifuge. The pelleted platelets were resuspended in buffer (10 mM Tris, 5 mM MgCl2, 2 mM EDTA, pH 7.0), snap freezed in liquid N2 and allowed to thaw slowly at room temperature in order to lyse the platelets. The latter step was repeated at least 3 times to ensure proper lysis. The lysed platelets were centrifuged at 3,000 rpm for 10 minutes in a SORVALL RT6000 centrifuge and resuspended in buffer. The latter step was repeated twice in order to remove any cytoplasmic proteins which may hydrolyse the platelet activating factor (PAF) receptor The prepared platelet membranes may be stored at -70° C. After thawing the prepared membranes were centrifuged in a SORVALL RT6000 at 3,000 rpm for 10 minutes and resuspended in assay buffer.
The assay was conducted by preparing a series of Tris-buffered solutions of the selected antagonist of predetermined concentrations. Each of these solutions contained ^3 H-PAF (0.5 nM; 1-O-[^3 H]octadecyl-2-acetyl-sn-glycero-3-phosphoryl choline with a specific activity of 132 Ci/mmol), […], a known amount of the test antagonist, and a sufficient amount of Tris-buffer solution (10 mM Tris, 5 mM MgCl2, pH 7.0, 0.25% BSA) to make the final volume 1 ml. Incubation was initiated by the addition of 100 μg of the isolated membrane fraction to each of the above solutions at 0° C. Two control samples, one (Cl) which contained all the ingredients described above except the antagonist and the other (C2) contains Cl plus a 1000-fold excess of unlabelled PAF, were also prepared and incubated simultaneously with the test samples. After 1 hour incubation, each solution was filtered rapidly under vacuo through a WHATMAN GF/C glass fibre filter in order to separate unbound PAF from bound PAF. (The word WHATMAN is a trade mark.) The residue in each case was rapidly washed 4 times with 5 ml cold (4° C.) Tris-buffer solution. Each washed residue was dried under vacuum on a sampling manifold and placed into vials containing 20 ml of OPTIPHASE MP scintillation fluid and the radioactivity counted in a liquid scintillation counter. […]

The subject of assay [4] is endotoxin induced hypotension. In words: reversal of endotoxin induced hypotension in the rat. To be noted: iv, read-out: ED50 (50% reversal of the endotoxin induced hypotension). It is filed as in vivo. The procedure: Rats were anaesthetised with a mixture of sodium pentobarbitone, 22.5 mg/kg, and thiopental, 62.5 mg/kg. The animals breathed spontaneously, air enriched with oxygen, and a carotid artery was cannulated for the measurement of blood pressure and heart rate. […] Test compounds were administered i.v. via the other jugular vein as a bolus.

As a reminder, the ED50 is the dose at which the effect has come halfway, by size or by number of responders. As usually defined, the IC50 is the concentration that inhibits the measured activity by half.

T1 sequence (P25105 whole entry): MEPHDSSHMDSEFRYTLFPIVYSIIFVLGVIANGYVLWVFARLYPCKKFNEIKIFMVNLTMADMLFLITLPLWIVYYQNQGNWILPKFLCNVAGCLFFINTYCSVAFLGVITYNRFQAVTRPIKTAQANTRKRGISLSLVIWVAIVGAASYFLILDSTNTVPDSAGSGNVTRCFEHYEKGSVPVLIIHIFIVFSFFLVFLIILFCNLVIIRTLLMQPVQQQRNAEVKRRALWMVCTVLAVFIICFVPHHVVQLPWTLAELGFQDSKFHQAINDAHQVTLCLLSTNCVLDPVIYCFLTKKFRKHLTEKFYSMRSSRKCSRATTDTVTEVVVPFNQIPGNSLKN

Consider `C=CCN([C@@H](CC(C)C)C(=O)OCC)S(=O)(=O)c1ccc(Cn2c(C)nc3cnccc32)cc1` [60(B), N-Allyl-N-4-(1H-2-methylimidazo[4,5-c]pyridylmethyl)phenylsulphonyl-L-leucine ethyl ester], for which the “% Inhibition of PAF-induced bronchoconstriction” value (shortened to “% Inhibition”) in assay [1] stood at 60%.

Consider `CCOC(=O)[C@H](CC(C)C)N(CC(=O)OC(C)(C)C)S(=O)(=O)c1ccc(Cn2c(C)nc3cnccc32)cc1` [69(B), N-t-butoxycarbonylmethyl-N-4-(1H-2-methylimidazo[4,5-c]pyridylmethyl)phenylsulphonyl-L-leucine ethyl ester], for which the “% Inhibition” value in assay [1] worked out at 60%.

With `CN(C(=O)c1ccc(Cn2cnc3cnccc32)cc1)C1CCCCC1` [Comparative Example, N-Cyclohexyl-N-methyl-4-(1H-imidazo[4,5-c]pyridylmethyl)benzamide, reference compound], the median effective dose (ED50) in assay [2] worked out at 150 µg/kg.

On to `CC[C@H](C)[C@H](NS(=O)(=O)c1ccc(Cn2c(C)nc3ccccc32)cc1)C(=O)OC` [Example 6, N-4-(1H-2-Methylbenzimidazolylmethyl)phenylsulphonyl-L-isoleucine methyl ester], for which, in assay [3], the concentration for half-maximal inhibition (IC50) turned out to be 30 nM.

As to `COC(=O)[C@H](CC(C)C)NS(=O)(=O)c1ccc(Cn2c(C)nc3ccccc32)cc1` [Example 7, N-4-(1H-2-Methylbenzimidazolylmethyl)phenylsulphonyl-L-leucine methyl ester], in assay [3], the IC50 came out at 20 nM. Moreover, the 50% effective dose (ED50) in assay [2] was 11.6 µg/kg.

In the case of `COC(=O)[C@H](COCc1ccccc1)NS(=O)(=O)c1ccc(Cn2c(C)nc3ccccc32)cc1` [Example 12, N-4-(1H-2-Methylbenzimidazolylmethyl)phenylsulphonyl-O-benzyl-L-serine methyl ester], the median effective dose (ED50) in assay [2] came to 21 µg/kg.

For `CCOC(=O)[C@H](CC(C)C)NS(=O)(=O)c1ccc(Cn2c(C)nc3ccccc32)cc1` [Example 14, N-4-(1H-2-Methylbenzimidazolylmethyl)phenylsulphonyl-L-leucine ethyl ester], the half-inhibitory concentration (IC50) in assay [3] turned out to be 15 nM.

Molecule `COC(=O)[C@H](CC(C)C)NS(=O)(=O)c1ccc(Cn2c(C)nc3cnccc32)cc1` [Example 32B, N-4-(1H-2-methylimidazo[4,5-c]pyridylmethyl)phenylsulphonyl-L-leucine methyl ester] returned a half-maximal inhibitory concentration (IC50) in assay [3] of 8 nM. Besides, the 50% effective dose (ED50) in assay [2] worked out at 2.1 µg/kg; in assay [4], 15.5 µg/kg.

As to `CCOC(=O)[C@H](CC(C)C)NS(=O)(=O)c1ccc(Cn2c(C)nc3cnccc32)cc1` [Example 35B, N-4-(1H-2-methylimidazo[4,5-c]pyridylmethyl)phenylsulphonyl-L-leucine ethyl ester], in assay [3], the half-maximal inhibitory concentration (IC50) worked out at 0.2 nM. The median effective dose (ED50) in assay [4] came to 2.9 µg/kg.

Regarding `CCOCCOC(=O)[C@H](CC(C)C)NS(=O)(=O)c1ccc(Cn2c(C)nc3ccncc32)cc1` [Example 42A, N-4-(3H-2-Methylimidazo[4,5-c]pyridylmethyl)phenylsulphonyl-L-leucine 2-ethoxyethyl ester], the IC50 in assay [3] was found to be 2 nM.

As to `Cc1nc2cnccc2n1Cc1ccc(S(=O)(=O)N[C@@H](CC(C)C)C(=O)OCCOCc2ccccc2)cc1` [Example 43B, N-4-(1H-2methylimidazo[4,5-c]pyridylmethyl)phenylsulphonyl-L-leucine 2-benzoxyethyl ester], the IC50 in assay [3] was 1 nM.

In the case of `CCOC(=O)[C@H](CC(C)C)N(C)S(=O)(=O)c1ccc(Cn2c(C)nc3cnccc32)cc1` [Example 53B, N-Methyl-N-4-(1H-2-methylimidazo[4,5-c]pyridylmethyl)phenylsulphonyl-L-leucine ethyl ester], the IC50 in assay [3] is 0.15 nM. Besides, in assay [2], the ED50 turned out to be 0.5 µg/kg. Also, the “% Inhibition” value in assay [1] was 91%.

The molecule `CCOC(=O)[C@H](CC(C)C)N(C)S(=O)(=O)c1ccc(Cn2c(C)nc3ccccc32)cc1` [Example 54, N-Methyl-N-4-(1H-2-methylbenzimidazolylmethyl)phenylsulphonyl-L-leucine ethyl ester] had an IC50 in assay [3] of 3 nM.

For `Cc1nc2cnccc2n1Cc1ccc(S(=O)(=O)N(C)[C@@H](CC(C)C)C(=O)OC(C)C)cc1` [Example 56B, N-Methyl-N-4-(1H-2-methylimidazo[4,5-c]pyridylmethyl)phenylsulphonyl-L-leucine i-propyl ester], the 50% effective dose (ED50) in assay [2] was found to be 0.6 µg/kg. For the same molecule, the “% Inhibition” value in assay [1] turned out to be 72%.

Consider `CCCCOC(=O)[C@H](CC(C)C)N(C)S(=O)(=O)c1ccc(Cn2c(C)nc3cnccc32)cc1` [Example 57B, N-methyl-N-4-(1H-2-methylimidazo[4,5-c]pyridylmethyl)phenylsulphonyl-L-leucine n-butyl ester], for which the concentration for half-maximal inhibition (IC50) in assay [3] came to 1 nM.

For the origin of these results see patent publication US5200412A, “Heterobicyclic containing benzene sulfonamides which are platelet activating factor antagonists” (British Bio-Technology Limited, priority 1990, dated 1993).
